Assay type: in vivo, human
Settings: for Concentration of Chlordane in Vital Sample, Cord Serum / Concentration of Chlordane in Vital Sample, Maternal Serum / Concentration of Chlordane in Vital Sample, Mother's Milk / Concentration of Endocrine-Disrupting Substance in Vital Sample, Cord Serum / Concentration of Endocrine-Disrupting Substance in Vital Sample, Maternal Serum / Concentration of Endocrine-Disrupting Substance in Vital Sample, Mother's Milk: in fat; for Concentration of Chlordane in Vital Sample, Cord Serum / Concentration of Chlordane in Vital Sample, Maternal Serum / Concentration of Chlordane in Vital Sample, Mother's Milk: individual chlordanes; for Concentration of Endocrine-Disrupting Substance in Vital Sample, Cord Serum / Concentration of Endocrine-Disrupting Substance in Vital Sample, Maternal Serum / Concentration of Endocrine-Disrupting Substance in Vital Sample, Mother's Milk: samples from 10 mothers; for PCB isomer value in the cord serum as compared with the maternal serum: cord serum vs maternal serum, confidence coefficient: 95% or more
Source text: Maternal serum, cord serum and mother's milk samples collected from 10 mothers were used (30 samples in total). These samples were used for the analysis test after obtaining the consent from the subjects.
The GPC column used was Shodex (registered trademark) EV-200AC Column (polystyrene-base hard gel column having an inner diameter of 2 mm and a length of 150 mm) manufactured by Showa Denko K. K.
A programmed temperature vaporizer (PTV) was equipped and in the GC part, an inactivated silica tube (2 m (length)×0.53 mm (inner diameter)) and capillary columns DB-5 (0.5 m (length)×0.25 mm (inner diameter), film thickness: 0.25 μm; and 60 m (length)×0.25 mm (inner diameter), film thickness: 0.1 μm), both manufactured by J & W Scientific, were used. After the injection of solution, the temperature was kept at 83° C. (for 5 minutes) and then elevated to 172° C. at 1° C./min and further to 270° C. at 50° C./min. The measurement was performed at 280° C.
In the main test below, the internal standard substances used were 3 kinds of PCBs marked by ^13C (3,3′,4,4′-tetrachlorobiphenyl, 3,3′,4,4′,5-pentachlorobiphenyl, 3,3′,4,4′,5,5′-hexachlorobiphenyl), hexachlorobenzene (HCB) and p,p′-dichlorodiphenyl dichloroethylene (DDE).
The cord serum (8 ml), the maternal serum (4 ml) and the mother's milk (2 ml) each was subjected to fat extraction according to the method by Patterson et al. More specifically, the sample was charged into a separating funnel, the internal standard substance was added, and then saturated ammonium sulfate, ethanol and hexane were added at a ratio of about 1:1:3. After shaking to cause separation into two layers, the aqueous layer was transferred to a different separating funnel and hexane was added thereto. After shaking to cause separation into two layers, the hexane layer was combined with the organic layer obtained at the first separation, washed with water, dried over anhydrous sodium sulfate, filtered, concentrated and dried. Thereafter, the total weight of fat was measured. The average fat amount was 0.197% in the cord serum, 0.895% in the maternal serum and 3.04% in the mother's milk.
Acetone/cyclohexane (3:7) (v/v) was passed through the GPC column at a flow rate of 0.1 ml/min and 20 μl of a solution obtained by dissolving the fat extracted above in 50 to 100 μl of a solvent having the same composition was injected into the GPC.
Based on the results in the preliminary measurement, the elution composition of 0 to 3.2 minutes after the injection of sample was discarded and the fraction of 3.2 to 5.2 minutes was collected in a sample loop (storage amount: 200 μl) and introduced into GC/MS at 5.2 to 7.5 minutes.
The results are shown in Table 1 together with analysis results of other endocrine-disrupting substances.

SMILES | Concentration of Chlordane in Vital Sample, Maternal Serum [ppb] | Concentration of Chlordane in Vital Sample, Mother's Milk [ppb] | Concentration of Endocrine-Disrupting Substance in Vital Sample, Cord Serum [ppb] | Concentration of Endocrine-Disrupting Substance in Vital Sample, Maternal Serum [ppb] | Concentration of Endocrine-Disrupting Substance in Vital Sample, Mother's Milk [ppb] | other results
ClC1=C(Cl)[C@]2(Cl)[C@H]3[C@H]([C@H](Cl)C(Cl)[C@@H]3Cl)[C@@]1(Cl)C2(Cl)Cl (stereo partly drawn) [cis-Nonachlor] | 1.54 | 2.25 | – | – | – | Concentration of Chlordane in Vital Sample, Cord Serum: 0.91 ppb
ClC1C(Cl)C(Cl)C(Cl)C(Cl)C1Cl (stereo not drawn) [HCH, hexachlorocyclohexane] | – | – | 189.54 | 271.49 | 315.58 | –
ClC1=C(Cl)[C@]2(Cl)[C@H]3C[C@H](Cl)[C@H](Cl)[C@H]3[C@@]1(Cl)C2(Cl)Cl (relative stereo) [cis-Chlordane] | 0.86 | 0.93 | – | – | – | –
ClC1=C(Cl)[C@]2(Cl)[C@H]3[C@H]([C@H](Cl)C(Cl)[C@@H]3Cl)[C@@]1(Cl)C2(Cl)Cl (stereo partly drawn) [trans-Nonachlor] | 17.08 | 19.58 | – | – | – | Concentration of Chlordane in Vital Sample, Cord Serum: 16.35 ppb
ClC1=C(Cl)[C@]2(Cl)[C@H]3[C@H]([C@H](Cl)[C@]4(Cl)O[C@H]34)[C@@]1(Cl)C2(Cl)Cl [Oxychlordane] | 6.30 | 6.49 | – | – | – | Concentration of Chlordane in Vital Sample, Cord Serum: 6.66 ppb
ClC(Cl)=C(c1ccc(Cl)cc1)c1ccc(Cl)cc1 [DDE, p,p′-dichlorodiphenyl dichloroethylene] | – | – | 278.63 | 314.48 | 343.62 | –
ClC1=C(Cl)C2(Cl)C3C4OC4C(Cl)C3C1(Cl)C2(Cl)Cl (stereo not drawn) [HCE, heptachloroepoxide] | – | – | 1.55 | 2.61 | 3.06 | –
Clc1ccc(-c2cc(Cl)c(Cl)c(Cl)c2Cl)c(Cl)c1Cl [#170] | – | – | – | – | – | PCB isomer value in the cord serum as compared with the maternal serum: significantly low
ClC1=C(Cl)C2(Cl)C3C(Cl)C=CC3C1(Cl)C2(Cl)Cl (stereo not drawn) [Heptachlor] | – | – | 1.20 | 1.17 | 0.30 | –
Clc1c(Cl)c(Cl)c(Cl)c(Cl)c1Cl [HCB, hexachlorobenzene] | – | – | 14.14 | 15.71 | 14.08 | –
Clc1ccc(-c2cc(Cl)c(Cl)cc2Cl)cc1Cl [#118] | – | – | – | – | – | PCB isomer value in the cord serum as compared with the maternal serum: significantly low
Clc1cc(Cl)c(-c2cc(Cl)c(Cl)c(Cl)c2)c(Cl)c1 [#168] | – | – | – | – | – | PCB isomer value in the cord serum as compared with the maternal serum: significantly low
ClC1=C(Cl)[C@]2(Cl)C3C(Cl)C(Cl)CC3[C@@]1(Cl)C2(Cl)Cl (stereo partly drawn) [γ-Chlordane] | 1.43 | 1.66 | – | – | – | Concentration of Chlordane in Vital Sample, Cord Serum: 1.64 ppb
Clc1cc(Cl)c(-c2cc(Cl)c(Cl)cc2Cl)cc1Cl [#153] | – | – | – | – | – | PCB isomer value in the cord serum as compared with the maternal serum: significantly low
